Data set [1] deals with HIV infected lymphocyte derived CEM cells. The experiment in a line: Cellular infection assay in CEM cells, XTT cytopathic procedure (EC50). The conditions noted are these: for TI (therapeutic index, TC50/EC50): CEM cells; for EC50: Human immunodeficiency virus 1, CCRF-CEM, read-out: Antiviral Efficacy EC50. On the procedure:
(§1) Compound concentrations were 0.32, 1, 3.2, 10, 32, and 100 uM.
Background: Formazan colour is commonly taken as a measure of viable cells.

In data set [2] the target is T1, Recombinant HIV-1 protease (Human immunodeficiency virus type 1 group M subtype B, UniProt P04585).
T1 construct: Recombinant HIV-1 protease (>96% purity); purchased Bachem Bioscience, Inc. (King of Prussia, Pa.)
The experiment in a line: HIV protease assay (Ki determination, HPLC readout of substrate III cleavage). It is filed as biochemical. The method, then:
Recombinant HIV-1 protease (>96% purity) and HIV protease substrate III (the undecapeptide H-His-Lys-Ala-Arg-Val-Leu-Nph-Glu-Ala-Nle-Ser-NH2, 97% purity) were purchased from Bachem Bioscience, Inc. (King of Prussia, Pa.).
The methods employed follow the procedures of Tummino, et al., Archives of Biochemistry and Biophysics, 1995;316:523). […] (total volume, […]). […] The final inhibitor concentrations used were 0 (0.1, 0.2, in some experiments), 0.5, 1, 2, 5, 10, 20, 50, and 100 μM. The solution was mixed, incubated for 5 minutes and the reaction quenched by addition of trifluoracetic acid, 2% final. The (leu-p-nitro-phe) bond of the substrate is cleaved by the enzyme and substrate arid products separated by reverse-phase HPLC. Absorbance was measured at 220 nm, peak areas determined, and percentage conversion to product used to calculate percentage control (=[% conversion (+inhibitor)/% conversion (−inhibitor)]×100).

A short description of data set [3]: Cellular toxicity in uninfected CEM cells, XTT (TC50). The settings on record: human, uninfected CEM cells (lymphocyte derived). On the procedure:
as §1

The mark [4] stands for this setting: recombinant HIV-1 protease, read-out: Inhib of HIV Protease KI.

Each structure is given as a SMILES string. Where two headings read alike, the source gives them in different places. Some results are limits rather than exact numbers.

For orientation: EC50 means the concentration giving half of the maximal effect. A word on the Ki: it is the equilibrium dissociation constant of an inhibitor or competing ligand from its target. As usually defined, the CC50 is the concentration giving 50% cytotoxicity. Lower therefore signals harm at low concentration. Regarding `Cc1cc(SC2=C(O)CC(CCc3ccsc3CO)(C(C)C)OC2=O)c(C(C)(C)C)cc1N` (stereo not shown) [Example 11, 3-(4-Amino-2-tert-butyl-5-methyl-phenylsulfanyl)-4-hydroxy-6-[2-(2-hydroxymethyl-thiophen-3-yl)-ethyl]-6-isopropyl-5,6-dihydro-pyran-2-one], in data set [1], the “TI (therapeutic index, TC50/EC50)” value worked out at 458 and the EC50 is 290 nM. The Ki in data set [2] (setting [4]) turned out to be 0.23 nM. In addition, in data set [3], the CC50 worked out at 133000 nM.
Consider `CC(C)c1cc2nc(N)sc2cc1SC1=C(O)C[C@@](CCc2ccccc2)(C(C)C)OC1=O` [Example 14, (S)-3-(2-Amino-5-isopropyl-benzothiazol-6-ylsulfanyl)-4-hydroxy-6-isopropyl-6-phenethyl-5,6-dihydro-pyran-2-one], for which, in data set [1], the “TI (therapeutic index, TC50/EC50)” value was 30 and the half-maximal effective concentration (EC50) turned out to be 2500 nM. For the same compound, the Ki in data set [2] (setting [4]) was determined as 0.67 nM. It took 75000 nM to reach half-maximal cytotoxicity in data set [3] (CC50).
Regarding `Cc1cnc(CCC2(C(C)C)CC(O)=C(Sc3cc(C)c(CO)cc3C(C)(C)C)C(=O)O2)s1` (racemic) [Example 28, 3-(2-tert-Butyl-4-hydroxymethyl-5-methyl-phenylsulfanyl)-4-hydroxy-6-isopropyl-6-[2-(5-methyl-thiazol-2-yl)-ethyl]-5,6-dihydro-pyran-2-one], in data set [1], the “TI (therapeutic index, TC50/EC50)” value amounted to 120 and the EC50 came to 1900 nM. The Ki in data set [2] came to 0.24 nM. This compound registered a CC50 in data set [3] of 229000 nM.
In the case of `Cc1cc(SC2=C(O)CC(CCc3cncnc3)(C(C)C)OC2=O)c(C(C)(C)C)cc1CO` (racemic) [Example 42, 3-(2-tert-Butyl-4-hydroxymethyl-5-methyl-phenylsulfanyl)-4-hydroxy-6-isopropyl-6-(2-pyrimidin-5-yl-ethyl)-5,6-dihydro-pyran-2-one], in data set [1], the “TI (therapeutic index, TC50/EC50)” value is on record as over 159 and the EC50 amounted to 1300 nM. In data set [3], this compound registered a CC50 of over 200000 nM.
In the same order, the values of `Cc1cc(SC2=C(O)C[C@@](CCc3ccc(O)cc3)(C(C)C)OC2=O)c(C(C)C)c2sc(N)nc12` [Example 18, (S)-3-(2-Amino-7-isopropyl-4-methyl-benzothiazol-6-ylsulfanyl)-4-hydroxy-6-[2-(4-hydroxyl-phenyl)-ethyl]-6-isopropyl-5,6-dihydro-pyran-2-one] are 105, 1100 nM and 117000 nM.
In the same order, the values of `Cc1cc(SC2=C(O)CC(CCc3scnc3C(C)C)(C(C)C)OC2=O)c(C(C)(C)C)cc1CO` (racemic) [Example 33, 3-(2-tert-Butyl-4-hydroxymethyl-5-methyl-phenylsulfanyl)-4-hydroxy-6-isopropyl-6-[2-(4-isopropyl-thiazol-5-yl)-ethyl]-5,6-dihydro-pyran-2-one] are 72, 1400 nM and 101000 nM.
In the same order, the values of `Cc1cc(SC2=C(O)CC(CCc3scnc3C)(C(C)C)OC2=O)c(C(C)(C)C)cc1CO` (stereo not shown) [Example 24, 3-(2-tert-Butyl-4-hydroxymethyl-5-methyl-phenylsulfanyl)-4-hydroxy-6-isopropyl-6-[2-(4-methyl-thiazol-5-yl)-ethyl]-5,6-dihydro-pyran-2-one] are 443, 370 nM and 164000 nM.
For `Cc1cc(SC2=C(O)C[C@@](CCc3ccccc3)(C(C)C)OC2=O)c(C(C)C)c2sc(N)nc12` [Example 17, (S)-3-(2-Amino-7-isopropyl-4-methyl-benzothiazol-6-yl-sulfanyl)-4-hydroxy-6-isopropyl-6-phenethyl-5,6-dihydro-pyran-2-one], in data set [1], the “TI (therapeutic index, TC50/EC50)” value is 16 and the EC50 came to 2700 nM. Further, the midpoint of cytotoxicity in data set [3], the CC50, lay at 42000 nM.
Consider `Cc1cc(SC2=C(O)CC(CCc3cccnc3)(C(C)C)OC2=O)c(C(C)(C)C)cc1CO` (stereo not shown) [Example 2, 3-(2-tert-Butyl-4-hydroxymethyl-5-methyl-phenylsulfanyl)4-hydroxy-6-isopropyl-6-(2-pyridin-3-yl-ethyl)-5,6-dihydro-pyran-2-one], for which, in data set [2] (setting [4]), the Ki came to 0.9 nM.
